Assay [1] addresses T1, ULK1 kinase (Homo sapiens, UniProt O75385, E37A/K38A).
T1 construct: (residues 1-283; ID NO: 2); purchased Beryllium
T1 sequence (O75385 1-283 E37A/K38A): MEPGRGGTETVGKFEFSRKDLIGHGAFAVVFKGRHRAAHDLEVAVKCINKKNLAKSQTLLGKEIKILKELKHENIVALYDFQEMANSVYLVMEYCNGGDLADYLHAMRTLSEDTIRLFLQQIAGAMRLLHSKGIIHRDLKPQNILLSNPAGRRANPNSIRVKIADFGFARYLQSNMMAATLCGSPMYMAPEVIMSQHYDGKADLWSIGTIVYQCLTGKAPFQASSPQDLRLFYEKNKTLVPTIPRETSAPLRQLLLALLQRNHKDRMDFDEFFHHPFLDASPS
Description: Biochemical assay for ULK1.3 (coupled pyruvate kinase/lactate dehydrogenase assay). Conditions: 0.1 nM ULK1 (residues 1-283), peptide substrate, 1 mM ATP. The protocol: Activity of ULK1 kinase was determined spectroscopically using a coupled pyruvate kinase/lactate dehydrogenase assay that continuously monitors the ATP hydrolysis-dependent oxidation of NADH (e.g., Schindler et al. Science (2000) 289: 1938-1942). Assays were conducted in 384-well plates (100 uL final volume) using 0.1 nM ULK1 (from Beryllium), 0.075 mM peptide substrate (YANWLAASIYLDGKKK (SEQ ID NO: 5)), 1.5 units pyruvate kinase, 2.1 units lactate dehydrogenase, 1 mM phosphoenol pyruvate, 0.28 mM NADH and 1 mM ATP in assay buffer (100 mM Tris, pH 7.5, 15 mM MgCl2, 0.5 mM DTT, 0.004% (w/v) BSA, and 0.004% Triton X-100). Inhibition of ULK1 was measured by adding serial diluted test compound (final assay concentration of 1% DMSO). A decrease in absorption at 340 nm was monitored continuously for 6 hours at 30° C. on a multi-mode microplate reader (BioTek). The reaction rate was calculated using the 2-3 h time frame. The reaction rate at each concentration of compound was converted to percent inhibition using controls (i.e. reaction with no test compound and reaction with a known inhibitor) and IC50 values were calculated using software routines in Prism (GraphPad software).

Assay [2] concerns the target T2, ULK1 kinase (Homo sapiens, UniProt O75385).
T2 construct: purchased Eurofins 14-959
T2 sequence (O75385 with tags, fused parts or gaps): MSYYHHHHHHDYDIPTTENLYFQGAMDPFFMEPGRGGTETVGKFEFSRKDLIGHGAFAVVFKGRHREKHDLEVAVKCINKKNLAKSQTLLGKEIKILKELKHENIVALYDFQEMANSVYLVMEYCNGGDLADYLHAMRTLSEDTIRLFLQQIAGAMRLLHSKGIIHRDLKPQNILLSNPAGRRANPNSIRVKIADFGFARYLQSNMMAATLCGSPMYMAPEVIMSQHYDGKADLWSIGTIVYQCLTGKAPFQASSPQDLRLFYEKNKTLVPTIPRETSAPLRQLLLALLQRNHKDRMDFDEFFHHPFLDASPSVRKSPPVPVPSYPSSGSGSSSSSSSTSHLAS
The assay is described as follows: Biochemical assay for ULK1.2 (coupled pyruvate kinase/lactate dehydrogenase assay). The note with it: 19 nM ULK1 (residues 1-314), myelin basic protein substrate, 1 mM ATP. The protocol: Activity of ULK1 kinase was determined spectroscopically using a coupled pyruvate kinase/lactate dehydrogenase assay that continuously monitors the ATP hydrolysis-dependent oxidation of NADH (e.g., Schindler et al. Science (2000) 289: 1938-1942). Assays were conducted in 384-well plates (100 uL final volume) using 19 nM ULK1 (Eurofins CAT #14-959), 0.25 mg/mL myelin basic protein, 1.5 units pyruvate kinase, 2.1 units lactate dehydrogenase, 1 mM phosphoenol pyruvate, 0.28 mM NADH and 1 mM ATP in assay buffer (100 mM Tris, pH 7.5, 15 mM MgCl2, 0.5 mM DTT, 0.1% octyl-glucoside, 0.002% (w/v) BSA, and 0.002% Triton X-100). Inhibition of ULK1 was measured by adding serial diluted test compound (final assay concentration of 1% DMSO). A decrease in absorption at 340 nm was monitored continuously for 6 hours at 30° C. on a multi-mode microplate reader (BioTek). The reaction rate was calculated using the 2-3 h time frame. The reaction rate at each concentration of compound was converted to percent inhibition using controls (i.e. reaction with no test compound and reaction with a known inhibitor) and IC50 values were calculated by fitting a four-parameter sigmoidal curve to the data using Prism (GraphPad software).

For orientation: IC50 means the point on the concentration scale where inhibition reaches its midpoint. High values mean weaker potency in that assay, low ones greater potency in that assay.

On ULK1 kinase [1], `CC(C)c1cc(N2CCN(C)CC2)ccc1Nc1ncc(C(F)(F)F)c(NCCCNC(=O)C2CCC2)n1` [Example 3] had an IC50 of 1 to 25 nM. The same measure, in the same setting: under `COc1cc(N2CCN(C)CC2)ccc1Nc1ncc(C(F)(F)F)c(NCCCNC(=O)C2CCC2)n1` [Example 4] stands 25 to 100 nM; under `CC(C)c1cc(N2CCN(C)CC2)ccc1Nc1ncc(Br)c(NCCCNC(=O)C2CCC2)n1` [Example 8], 25 to 100 nM.

As to `Cc1cc(N2CCN(C)CC2)ccc1Nc1ncc(C(F)(F)F)c(NCCCNC(=O)C(C)(C)C)n1` [Example 12], at ULK1 kinase [2], the IC50 lay within 25 to 100 nM. Turning to `CN1CCN(c2ccc(Nc3ncc(C(F)(F)F)c(NCCCNC(=O)C4CCC4)n3)c(C3CC3)c2)CC1` [Example 14], the concentration for half-maximal inhibition (IC50) on ULK1 kinase [1] was 1 to 25 nM.

Source of the values: patent US11590134B2, “Aminopyrimidine amide autophagy inhibitors and methods of use thereof” (Deciphera Pharmaceuticals, LLC, priority 2019, dated 2023).
